Numbers after ± are expanded uncertainties.

The first data set in a line: activity coefficient (dimensionless); of the first substance listed, at infinite dilution; xn = mol fraction of the nth substance listed. As to conditions: 333 K; Liquid; Chromatography; x1 = 0.
Turning to `c1ccoc1` [furan] + CCCC[n+]1ccn(C)c1.O=S(=O)([N-]S(=O)(=O)C(F)(F)F)C(F)(F)F, the activity coefficient was 0.711 ± 0.063.
The same measure, in the same setting: the result for `c1ccccc1` [benzene] + CCCC[n+]1ccn(C)c1.O=S(=O)([N-]S(=O)(=O)C(F)(F)F)C(F)(F)F reads 0.975 ± 0.083; that for `CCc1ccccc1` [ethylbenzene] + CCCCn1cc[n+](C)c1.[Cl-], 12.4 ± 1.1.
The same measure, in the same setting: the result for `Clc1ccccc1` [chlorobenzene] + CCCC[n+]1ccn(C)c1.O=S(=O)([N-]S(=O)(=O)C(F)(F)F)C(F)(F)F reads 1.53 ± 0.13; that for `CO` [methanol] + CCCCn1cc[n+](C)c1.[Cl-], 0.104 ± 0.03.
Consider `CCCO` [propan-1-ol] + CCCC[n+]1ccn(C)c1.O=S(=O)([N-]S(=O)(=O)C(F)(F)F)C(F)(F)F, for which the activity coefficient was found to be 1.63 ± 0.14.
Same read-out and setting: the result for `CCc1ccco1` [2-ethylfuran] + CCCC[n+]1ccn(C)c1.O=S(=O)([N-]S(=O)(=O)C(F)(F)F)C(F)(F)F reads 1.51 ± 0.13.
The same measure, in the same setting: the result for `c1ccoc1` [furan] + CCCCn1cc[n+](C)c1.[Cl-] reads 1.56 ± 0.14.
On the same count and under the same terms, the result for `CO` [methanol] + CCCC[n+]1ccn(C)c1.O=S(=O)([N-]S(=O)(=O)C(F)(F)F)C(F)(F)F reads 1.09 ± 0.09.

Staying with this data set, now noted: 343 K; Liquid; Chromatography; x1 = 0.
Take `Cc1ccccc1` [toluene] + CCCC[n+]1ccn(C)c1.O=S(=O)([N-]S(=O)(=O)C(F)(F)F)C(F)(F)F: the activity coefficient amounted to 1.39 ± 0.12.
Turning to `Cc1ccco1` [2-methylfuran] + CCCCn1cc[n+](C)c1.[Cl-], the activity coefficient is 3.96 ± 0.36.
The same measure, in the same setting: the result for `CCO` [ethanol] + CCCC[n+]1ccn(C)c1.O=S(=O)([N-]S(=O)(=O)C(F)(F)F)C(F)(F)F reads 1.28 ± 0.11; that for `CCCO` [propan-1-ol] + CCCCn1cc[n+](C)c1.[Cl-], 0.292 ± 0.036; that for `Cc1ccc(C)o1` [2,5-dimethylfuran] + CCCCn1cc[n+](C)c1.[Cl-], 9.64 ± 0.89.
As for `CCO` [ethanol] + CCCCn1cc[n+](C)c1.[Cl-], the activity coefficient turned out to be 0.22 ± 0.032.
Consider `Clc1ccccc1` [chlorobenzene] + CCCCn1cc[n+](C)c1.[Cl-], for which the activity coefficient came out at 3.82 ± 0.35.
Consider `CCc1ccccc1` [ethylbenzene] + CCCC[n+]1ccn(C)c1.O=S(=O)([N-]S(=O)(=O)C(F)(F)F)C(F)(F)F, for which the activity coefficient amounted to 2.05 ± 0.18.
As to `c1ccccc1` [benzene] + CCCCn1cc[n+](C)c1.[Cl-], the activity coefficient stood at 4.15 ± 0.38.
The same measure, in the same setting: the result for `Cc1ccco1` [2-methylfuran] + CCCC[n+]1ccn(C)c1.O=S(=O)([N-]S(=O)(=O)C(F)(F)F)C(F)(F)F reads 1.17 ± 0.1; that for `CCc1ccco1` [2-ethylfuran] + CCCCn1cc[n+](C)c1.[Cl-], 6.23 ± 0.57.
On the same count and under the same terms, the result for `Cc1ccc(C)o1` [2,5-dimethylfuran] + CCCC[n+]1ccn(C)c1.O=S(=O)([N-]S(=O)(=O)C(F)(F)F)C(F)(F)F reads 1.88 ± 0.17; that for `Cc1ccccc1` [toluene] + CCCCn1cc[n+](C)c1.[Cl-], 7.3 ± 0.67; that for `c1ccoc1` [furan] + CCCC[n+]1ccn(C)c1.O=S(=O)([N-]S(=O)(=O)C(F)(F)F)C(F)(F)F, 0.727 ± 0.064.
Consider `c1ccccc1` [benzene] + CCCC[n+]1ccn(C)c1.O=S(=O)([N-]S(=O)(=O)C(F)(F)F)C(F)(F)F, for which the activity coefficient was determined as 0.99 ± 0.084.
Still for that read-out and setting: the result for `CCc1ccccc1` [ethylbenzene] + CCCCn1cc[n+](C)c1.[Cl-] reads 12.4 ± 1.1; that for `Clc1ccccc1` [chlorobenzene] + CCCC[n+]1ccn(C)c1.O=S(=O)([N-]S(=O)(=O)C(F)(F)F)C(F)(F)F, 1.54 ± 0.13.
Turning to `CO` [methanol] + CCCCn1cc[n+](C)c1.[Cl-], the activity coefficient was determined as 0.109 ± 0.03.
Consider `CCCO` [propan-1-ol] + CCCC[n+]1ccn(C)c1.O=S(=O)([N-]S(=O)(=O)C(F)(F)F)C(F)(F)F, for which the activity coefficient stood at 1.51 ± 0.13.
The same measure, in the same setting: the result for `CCc1ccco1` [2-ethylfuran] + CCCC[n+]1ccn(C)c1.O=S(=O)([N-]S(=O)(=O)C(F)(F)F)C(F)(F)F reads 1.52 ± 0.13.
Consider `c1ccoc1` [furan] + CCCCn1cc[n+](C)c1.[Cl-], for which the activity coefficient worked out at 1.66 ± 0.15.
Still for that read-out and setting: the result for `CO` [methanol] + CCCC[n+]1ccn(C)c1.O=S(=O)([N-]S(=O)(=O)C(F)(F)F)C(F)(F)F reads 1.06 ± 0.09.

Staying with this data set, now noted: 353 K; Liquid; Chromatography; x1 = 0.
For `Cc1ccccc1` [toluene] + CCCC[n+]1ccn(C)c1.O=S(=O)([N-]S(=O)(=O)C(F)(F)F)C(F)(F)F, the activity coefficient turned out to be 1.42 ± 0.12.
Regarding `Cc1ccco1` [2-methylfuran] + CCCCn1cc[n+](C)c1.[Cl-], the activity coefficient amounted to 4.08 ± 0.37.
`CCO` [ethanol] + CCCC[n+]1ccn(C)c1.O=S(=O)([N-]S(=O)(=O)C(F)(F)F)C(F)(F)F: the activity coefficient is 1.2 ± 0.1.
Same read-out and setting: the result for `CCCO` [propan-1-ol] + CCCCn1cc[n+](C)c1.[Cl-] reads 0.301 ± 0.036; that for `Cc1ccc(C)o1` [2,5-dimethylfuran] + CCCCn1cc[n+](C)c1.[Cl-], 9.76 ± 0.9.
Still for that read-out and setting: the result for `CCO` [ethanol] + CCCCn1cc[n+](C)c1.[Cl-] reads 0.229 ± 0.033; that for `Clc1ccccc1` [chlorobenzene] + CCCCn1cc[n+](C)c1.[Cl-], 3.96 ± 0.36.
Turning to `CCc1ccccc1` [ethylbenzene] + CCCC[n+]1ccn(C)c1.O=S(=O)([N-]S(=O)(=O)C(F)(F)F)C(F)(F)F, the activity coefficient stood at 2.07 ± 0.18.
The same measure, in the same setting: the result for `c1ccccc1` [benzene] + CCCCn1cc[n+](C)c1.[Cl-] reads 4.12 ± 0.38; that for `Cc1ccco1` [2-methylfuran] + CCCC[n+]1ccn(C)c1.O=S(=O)([N-]S(=O)(=O)C(F)(F)F)C(F)(F)F, 1.18 ± 0.1; that for `CCc1ccco1` [2-ethylfuran] + CCCCn1cc[n+](C)c1.[Cl-], 6.41 ± 0.59.
Take `Cc1ccc(C)o1` [2,5-dimethylfuran] + CCCC[n+]1ccn(C)c1.O=S(=O)([N-]S(=O)(=O)C(F)(F)F)C(F)(F)F: the activity coefficient was determined as 1.88 ± 0.17.
For `Cc1ccccc1` [toluene] + CCCCn1cc[n+](C)c1.[Cl-], the activity coefficient was 7.38 ± 0.68.
On the same count and under the same terms, the result for `c1ccoc1` [furan] + CCCC[n+]1ccn(C)c1.O=S(=O)([N-]S(=O)(=O)C(F)(F)F)C(F)(F)F reads 0.739 ± 0.065; that for `c1ccccc1` [benzene] + CCCC[n+]1ccn(C)c1.O=S(=O)([N-]S(=O)(=O)C(F)(F)F)C(F)(F)F, 1.01 ± 0.09.
On to `CCc1ccccc1` [ethylbenzene] + CCCCn1cc[n+](C)c1.[Cl-], for which the activity coefficient is 12.4 ± 1.1.
Turning to `Clc1ccccc1` [chlorobenzene] + CCCC[n+]1ccn(C)c1.O=S(=O)([N-]S(=O)(=O)C(F)(F)F)C(F)(F)F, the activity coefficient came out at 1.54 ± 0.13.
`CO` [methanol] + CCCCn1cc[n+](C)c1.[Cl-]: the activity coefficient amounted to 0.115 ± 0.03.
On to `CCCO` [propan-1-ol] + CCCC[n+]1ccn(C)c1.O=S(=O)([N-]S(=O)(=O)C(F)(F)F)C(F)(F)F, for which the activity coefficient was 1.4 ± 0.12.
On the same count and under the same terms, the result for `CCc1ccco1` [2-ethylfuran] + CCCC[n+]1ccn(C)c1.O=S(=O)([N-]S(=O)(=O)C(F)(F)F)C(F)(F)F reads 1.54 ± 0.13.
Regarding `c1ccoc1` [furan] + CCCCn1cc[n+](C)c1.[Cl-], the activity coefficient amounted to 1.75 ± 0.16.
Still for that read-out and setting: the result for `CO` [methanol] + CCCC[n+]1ccn(C)c1.O=S(=O)([N-]S(=O)(=O)C(F)(F)F)C(F)(F)F reads 1.03 ± 0.09.

The values above are taken from the NIST ThermoML archive (doi:10.1016/j.fluid.2019.01.028).
